Data on four compounds can be found in patent US20260250320A1, “LIPIDATED PEPTIDE INHIBITORS OF INTERLEUKIN-23 RECEPTOR” (Janssen Pharmaceutica NV, priority 2023, published 2026).

The target in one assay is T1, IL-23R (Homo sapiens, UniProt Q5VWK5).
T1 construct: HEK293 cells containing IL-23R, IL-12Rβ1 and a firefly luciferase reporter gene driven by a STAT-inducible promoter (Promega); host or cells: HEK293
T1 sequence (Q5VWK5 24-629): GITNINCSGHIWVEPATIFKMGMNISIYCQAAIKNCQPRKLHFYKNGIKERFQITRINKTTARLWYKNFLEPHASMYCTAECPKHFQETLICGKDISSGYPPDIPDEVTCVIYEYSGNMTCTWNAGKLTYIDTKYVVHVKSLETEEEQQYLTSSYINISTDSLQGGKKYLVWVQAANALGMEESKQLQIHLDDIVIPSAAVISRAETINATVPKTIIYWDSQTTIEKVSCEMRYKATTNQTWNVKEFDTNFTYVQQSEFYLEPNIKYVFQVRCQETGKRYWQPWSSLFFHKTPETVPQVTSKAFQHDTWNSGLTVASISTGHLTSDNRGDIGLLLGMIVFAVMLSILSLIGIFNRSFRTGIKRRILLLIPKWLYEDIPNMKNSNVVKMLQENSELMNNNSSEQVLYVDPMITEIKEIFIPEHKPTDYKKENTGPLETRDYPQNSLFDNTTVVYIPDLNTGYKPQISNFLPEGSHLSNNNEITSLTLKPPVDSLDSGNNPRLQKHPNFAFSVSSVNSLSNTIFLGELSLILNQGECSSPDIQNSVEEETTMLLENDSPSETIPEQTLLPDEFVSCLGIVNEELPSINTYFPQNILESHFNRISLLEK
Briefly: IL23R Reporter Assay. To be noted: HEK293 cells containing IL-23R, IL-12Rβ1 and STAT-inducible firefly luciferase reporter; 10 ng/mL IL-23 (EC90); 5 h. The format is cell-based. The gist of the method: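 IC50 values were fitted with a 4-parameter Hill equation to luciferase signal, scaled between IL-23-only wells (0% inhibition) and 30 μM reference inhibitor (100%). The readout was a STAT-inducible reporter in IL-23R/IL-12Rβ1 HEK293 cells, stimulated with added 10 ng/mL IL-23 (EC90) for 5 h at 37° C and developed with BioGlo.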
(A reporter such as luciferase makes a cellular process visible.)

For assay [1], the system named is IL-23-stimulated phosphorylated STAT3 in peripheral blood mononuclear cells (PBMCs). Briefly: PBMC pSTAT3 Assay. The format is cell-based. To be noted: PBMCs from healthy donors; 30 min preincubation with peptide; IL-23 5 ng/mL for 30 min; phospho-STAT3 by MSD. The gist of the method:
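Phospho-STAT3 quantified by Meso Scale assay in lysates of PBMCs exposed to IL-23 (5 ng/mL, 30 min, 37 °C) after 30 min peptide pretreatment. Cells were cryopreserved donor PBMCs activated 4 days with anti-CD3 plus IL-1β (100 ng/mL) and starved ~4 h; IC50 reported.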

Molecules are shown by their SMILES. *1 amine or outer side, *2 acyl side, *3 side chain or, on linkers, in order; H or OH if unused. Where a SMILES comes first, the peptide text is derived from it. Bridges are numbered along the chain shown (N, C = ends). Roman numbers before positions name the chains, in order. Side-chain parts run from the residue outwards. [ ]: non-standard residue; d: D form. The star is where a group is joined. X35 = NCCOc1ccc(C[C@H](N[*:1])C(=O)CC(Cc2ccc3ccccc3c2)C(=O)[*:2])cc1; PEG12 = NCCOCCOCCOCCOCCOCCOCCOCCOCCOCCOCCOCCOCCC(=O)O; Trp(7-Me,2,3-dihydro) = Cc1cccc2c1NCC2C[C@H](N)C(=O)O; CH2CH2OCH2CH2OCH2CH2NMe3+ = C[N+](C)(C)CCOCCOCC*; Trp(7-Me) = Cc1cccc2c(C[C@H](N)C(=O)O)c[nH]c12; C18 diacid = O=C(O)CCCCCCCCCCCCCCCCC(=O)*; γGlu = O=C(O)[C@H](CCC(=O)[*:2])N[*:1]; 2Nal = N[C@@H](Cc1ccc2ccccc2c1)C(=O)O; AEF = NCCOc1ccc(C[C@H](N)C(=O)O)cc1; 3Pal = N[C@@H](Cc1cccnc1)C(=O)O; Lys(Me) = CNCCCC[C@H](N)C(=O)O; Pen = CC(C)(S)[C@H](N)C(=O)O; Thp = NC1(C(=O)O)CCOCC1; AEEA = NCCOCCOCC(=O)O; Sar = CNCC(=O)O

What is called IC50 is the concentration at which inhibition is half-maximal.

With `CC(=O)NCCCC[C@@H]1NC(=O)[C@H](CC2CNc3c(C)cccc32)NC(=O)[C@H]([C@@H](C)O)NC(=O)[C@H](CC(N)=O)NC(=O)[C@@H](NC(=O)[C@@H](CCCNC(=N)N)NC(C)=O)C(C)(C)SSC(C)(C)[C@@H](C(=O)N[C@@H](Cc2ccc(OCCN)cc2)C(=O)N[C@@H](Cc2ccc3ccccc3c2)C(=O)NCC(=O)N[C@@H](CCCCNC(=O)CCOCCOCCOCCOCCOCCOCCOCCOCCOCCOCCOCCOCCNC(=O)CC[C@H](NC(=O)CCCCCCCCCCCCCCCCC(=O)O)C(=O)O)C(=O)N[C@@H](CC(N)=O)C(=O)N[C@@H](Cc2cccnc2)C(=O)N(C)CC(N)=O)NC1=O` (stereo partly drawn) [compound 146, MeCO-r-Pen(3)-N-T-7MeW-K(Ac)-Pen(3)-AEF-2Nal-THP-K(PEG12gEC18OH)-N-3Pya-Sar-CONH2] (Ac-[dR][Pen]NT[Trp(7-Me,2,3-dihydro)]K(Ac)[Pen][AEF][2Nal]GK([PEG12-γGlu-C18 diacid])N[3Pal][Sar]-NH2; disulfide 2-7), the IC50 at IL-23R is 0.05 to 0.5 µM; in assay [1], less than 0.0005 µM.

On to `CC(=O)NCCCC[C@@H]1NC(=O)[C@H](Cc2c[nH]c3c(C)cccc23)NC(=O)[C@H]([C@@H](C)O)NC(=O)[C@H](CC(N)=O)NC(=O)[C@@H](NC(C)=O)C(C)(C)SSC(C)(C)[C@@H](C(=O)N[C@@H](Cc2ccc(OCCN)cc2)C(=O)N[C@@H](Cc2ccc3ccccc3c2)C(=O)NC2(C(=O)N[C@@H](CCC(=O)O)C(=O)N[C@@H](CC(N)=O)C(=O)N[C@@H](Cc3cccnc3)C(=O)N(C)CC(=O)OCCOCCOCCNC(=O)COCCOCCNC(=O)CC[C@H](NC(=O)CCCCCCCCCCCCCCCCC(=O)O)C(=O)O)CCOCC2)NC1=O` [compound 147, MeCO-Pen(3)-N-T-7MeW-K(Ac)-Pen(3)-AEF-2Nal-THP-E-N-3Pya-Sar-CO(PEG2PEG2gEC18OH)], for which the results for the IC50 (on IL-23R; in assay [1]) were not below 0.5 µM and 0.0005 to 0.005 µM, respectively.

Regarding `CC(=O)N(C)CCCC[C@@H]1NC(=O)[C@H](Cc2c[nH]c3c(C)cccc23)NC(=O)[C@H]([C@@H](C)O)NC(=O)[C@H](CC(=O)N(C)C)NC(=O)[C@@H](N)C(C)(C)SSC(C)(C)[C@@H](C(=O)N[C@@H](Cc2ccc(OCCOCCOCC[N+](C)(C)C)cc2)C(=O)N[C@@H](Cc2ccc3ccccc3c2)C(=O)NC2(C(=O)N[C@@H](CCCCN(C)C(C)=O)C(=O)N[C@@H](CC(N)=O)C(=O)N[C@@H](Cc3cccnc3)C(=O)N(C)CC(=O)N[C@@H](CCCCNC(=O)COCCOCCNC(=O)COCCOCCNC(=O)CC[C@H](NC(=O)CCCCCCCCCCCCCCCCC(=O)O)C(=O)O)C(=O)N(C)C)CCOCC2)NC1=O` [compound 148, cPEG3aCO-Pen(3)-N(N(Me)2)-T-7MeW-K(NMeAc)-Pen(3)-APEC3F-2Nal-THP-K(NMeAc)-N-3Pya-Sar-K(PEG2PEG2gEC18OH)-CON(Me)2] (H-[Pen]D(NMe2)T[Trp(7-Me)][Lys(Me)](Ac)[Pen]Y(CH2CH2OCH2CH2OCH2CH2NMe3+)[2Nal][Thp][Lys(Me)](Ac)N[3Pal][Sar]K([AEEA-AEEA-γGlu-C18 diacid])-NMe2; disulfide 1-6), the concentration for half-maximal inhibition (IC50) was 0.05 to 0.5 µM at IL-23R and less than 0.0005 µM in assay [1].

On to `CC(=O)NCCCC[C@@H]1NC(=O)[C@H](Cc2c[nH]c3c(C)cccc23)NC(=O)[C@H]([C@@H](C)O)NC(=O)[C@H](CC(N)=O)NC(=O)[C@@H](NC(C)=O)C(C)(C)SSC(C)(C)[C@@H](C(=O)N[C@@H](Cc2ccc(OCCN)cc2)C(=O)CC(Cc2ccc3ccccc3c2)C(=O)NC2(C(=O)N[C@@H](CCC(=O)O)C(=O)N[C@@H](CC(N)=O)C(=O)N[C@@H](Cc3cccnc3)C(=O)N(C)CC(=O)N[C@@H](CCCCNC(=O)COCCOCCNC(=O)COCCOCCNC(=O)CC[C@H](NC(=O)CCCCCCCCCCCCCCCCC(=O)O)C(=O)O)C(=O)N(C)C)CCOCC2)NC1=O` (stereo partly drawn) [compound 149, MeCO-Pen(3)-N-T-7MeW-K(Ac)-Pen(3)-AEF-2Nal-THP-E-N-3Pya-Sar-K(PEG2PEG2gEC18OH)-CON(Me)2] (I: Ac-[Pen]NT[Trp(7-Me)]K(Ac)[Pen] / II: [Thp]EN[3Pal][Sar]K([AEEA-AEEA-γGlu-C18 diacid])-NMe2; disulfide I:1-I:6; linker I:C-II:N via X35), for which the results for the half-maximal inhibitory concentration (IC50) (on IL-23R; in assay [1]) were not below 0.5 µM and not below 0.005 µM, respectively.
